# Laboratory results from US4740601A, “Imidazole derivatives having antimicrobial activities” (SS Pharmaceutical Co., Ltd., priority 1985, dated 1988).
# Where two headings read alike, the source gives them in different places.
# How the values were obtained:
# Type in all cases: cell-based
# [1] = system: Sarcina lutea ATCC 9341; test: antimicrobial activity, MIC
# [2] = system: Candida albicans NHL 4019; test: antimicrobial activity, MIC; details: Candida albicans, NHL4019, Candida albicans NHL 4019; read-out: MIC
# [3] = system: Epidermophyton floccosum IFO 9045; test: antimicrobial activity, MIC
# [4] = system: Trichophyton mentagrophytes IFO 5812; test: antimicrobial activity, MIC
# [5] = system: Micrococcus lysodeixticus IFO 3333; test: antimicrobial activity, MIC; details: Micrococcus
# [6] = system: Staphylococcus aureus Smith; test: antimicrobial activity, MIC; details: Staphylococcus aureus, read-out: MIC
# [7] = system: Microsporum cookei IFO 8303; test: antimicrobial activity, MIC
# [8] = system: Saccharomyces ruxii 6507; test: antimicrobial activity, MIC
# [9] = system: Penicillium chrysogenum ATCC 6010; test: antimicrobial activity, MIC
# [10] = system: Candida albicans Yu-1200; test: antimicrobial activity, MIC; details: YU1200, read-out: MIC
# [11] = system: Microsporum gypseum IFO 8231; test: antimicrobial activity, MIC; details: Nannizzia gypsea, IFO8231, Microsporum gypseum IFO 8231; read-out: MIC
# [12] = system: Cladosporium fulvum IAM 5006; test: antimicrobial activity, MIC; details: Fulvia fulva, IAM5006, Cladosporium fulvum IAM 5006; read-out: MIC
# [13] = system: Staphylococcus aureus Terajima; test: antimicrobial activity, MIC; details: Staphylococcus aureus, read-out: MIC
# [14] = system: Aspergillus niger ATCC 9642; test: antimicrobial activity, MIC
# [15] = system: Pyricularia oryzae IAM 5016; test: microbe, parasite or virus in culture
# [16] = system: Trichophyton tonsurans IFO 5928; test: antimicrobial activity, MIC
# [17] = system: Helminthosporium sesamum IAM 5012; test: antimicrobial activity, MIC
# [18] = system: Staphylococcus aureus FDA 209P; test: antimicrobial activity, MIC; details: Staphylococcus aureus, FDA209P, read-out: MIC
# [19] = system: Staphylococcus epidermidis ATCC 12228; test: antimicrobial activity, MIC; details: Staphylococcus epidermidis, ATCC12228, Staphylococcus epidermidis ATCC 12228; read-out: MIC
# [20] = system: Trichophyton rubrum NHL J; test: antimicrobial activity, MIC; details: Trichophyton rubrum NHL J
# [21] = system: Streptococcus faecalis IFO 12964; test: antimicrobial activity, MIC; details: Enterococcus faecalis, IFO12964, Streptococcus faecalis IFO 12964; read-out: MIC
# [22] = system: Aspergillus oryzae IMF 4014; test: antimicrobial activity, MIC
# [23] = system: Trichophyton mentagrophytes QM 248; test: antimicrobial activity, MIC
# [24] = system: Bacillus subtilis ATCC 6633; test: antimicrobial activity, MIC
# [25] = system: Microsporum audounii IFO 6074; test: antimicrobial activity, MIC
# [26] = system: Saccharomyces cerevisiae ATCC 9763; test: antimicrobial activity, MIC; details: Saccharomyces cerevisiae, ATCC9763, Saccharomyces cerevisiae ATCC 9763; read-out: MIC
# [27] = system: Fusarium moniliforme IAM 5062; test: antimicrobial activity, MIC; details: Fusarium verticillioides, IAM5062, Fusarium moniliforme IAM 5062; read-out: MIC
# [28] = system: Debaryomyces kloeckeri IFO 0015; test: antimicrobial activity, MIC; details: IFO0015, read-out: MIC
# [29] = system: Gibberella fujikuroi IAM 8046; test: antimicrobial activity, MIC
# [30] = Micrococcus luteus, ATCC9341, Sarcina lutea ATCC 9341, read-out: MIC
# [31] = Epidermophyton floccosum, IFO9045, Epidermophyton floccosum IFO 9045, read-out: MIC
# [32] = Trichophyton mentagrophytes, IFO5812, Trichophyton mentagrophytes IFO 5812, read-out: MIC
# [33] = IFO3333, Micrococcus lysodeixticus IFO 3333, read-out: MIC
# [34] = Paraphyton cookei, IFO8303, Microsporum cookei IFO 8303, read-out: MIC
# [35] = Saccharomyces ruxii 6507, read-out: MIC
# [36] = Penicillium chrysogenum, ATCC6010, Penicillium chrysogenum ATCC 6010, read-out: MIC
# [37] = Aspergillus niger, ATCC9642, Aspergillus niger ATCC 9642, read-out: MIC
# [38] = Pyricularia oryzae, IAM5016, Pyricularia oryzae IAM 5016
# [39] = Trichophyton tonsurans, IFO5928, Trichophyton tonsurans IFO 5928, read-out: MIC
# [40] = Helminthosporium, IAM5012, Helminthosporium sesamum IAM 5012, read-out: MIC
# [41] = Trichophyton rubrum, read-out: MIC
# [42] = Aspergillus oryzae, IMF4014, Aspergillus oryzae IMF 4014, read-out: MIC
# [43] = Trichophyton mentagrophytes, QM248, Trichophyton mentagrophytes QM 248, read-out: MIC
# [44] = Bacillus subtilis, ATCC6633, Bacillus subtilis ATCC 6633, read-out: MIC
# [45] = Microsporum, IFO6074, Microsporum audounii IFO 6074, read-out: MIC
# [46] = Fusarium fujikuroi, IAM8046, Gibberella fujikuroi IAM 8046, read-out: MIC
Structure (SMILES),"MIC [1, 30]",MIC [2],"MIC [3, 31]","MIC [4, 32]","MIC [5, 33]",MIC [6],"MIC [7, 34]","MIC [8, 35]","MIC [9, 36]",MIC [10],MIC [11],MIC [12],MIC [13],"MIC [14, 37]",MIC [18],MIC [19],MIC [21],MIC [26],MIC [27],MIC [28],also measured
"CCCCCOc1ccccc1C(=CSCC)n1ccnc1 (single isomer, unassigned) [Compound 34]",1.56 µg/mL,50 µg/mL,1.56 µg/mL,< 0.2 µg/mL,0.39 µg/mL,12.5 µg/mL,1.56 µg/mL,< 0.2 µg/mL,3.12 µg/mL,50 µg/mL,< 0.2 µg/mL,25 µg/mL,12.5 µg/mL,0.78 µg/mL,12.5 µg/mL,3.12 µg/mL,12.5 µg/mL,< 0.2 µg/mL,0.39 µg/mL,0.78 µg/mL,"MIC [15, 38]: < 0.2 µg/mL; MIC [16, 39]: < 0.2 µg/mL; MIC [17, 40]: < 0.2 µg/mL; MIC [20, 41]: < 0.2 µg/mL; MIC [22, 42]: 1.56 µg/mL; MIC [23, 43]: < 0.2 µg/mL; MIC [24, 44]: 3.12 µg/mL; MIC [25, 45]: < 0.2 µg/mL; MIC [29, 46]: < 0.2 µg/mL"
"CCCOc1ccccc1C(=CSCCC)n1ccnc1 (single isomer, unassigned) [Compound 39]",12.5 µg/mL,25 µg/mL,1.56 µg/mL,0.39 µg/mL,6.25 µg/mL,25 µg/mL,1.56 µg/mL,0.78 µg/mL,1.56 µg/mL,50 µg/mL,0.39 µg/mL,25 µg/mL,25 µg/mL,1.56 µg/mL,25 µg/mL,25 µg/mL,25 µg/mL,0.39 µg/mL,0.78 µg/mL,6.25 µg/mL,"MIC [15, 38]: < 0.2 µg/mL; MIC [16, 39]: 0.39 µg/mL; MIC [17, 40]: 0.39 µg/mL; MIC [20, 41]: < 0.2 µg/mL; MIC [22, 42]: 0.78 µg/mL; MIC [23, 43]: 0.39 µg/mL; MIC [24, 44]: 12.5 µg/mL; MIC [25, 45]: < 0.2 µg/mL; MIC [29, 46]: 0.78 µg/mL"
"CCCCSC=C(c1ccccc1OCCC)n1ccnc1 (single isomer, unassigned) [Compound 46]",6.25 µg/mL,25 µg/mL,1.56 µg/mL,< 0.2 µg/mL,3.12 µg/mL,12.5 µg/mL,1.56 µg/mL,0.78 µg/mL,1.56 µg/mL,50 µg/mL,< 0.2 µg/mL,12.5 µg/mL,12.5 µg/mL,1.56 µg/mL,12.5 µg/mL,6.25 µg/mL,12.5 µg/mL,< 0.2 µg/mL,1.56 µg/mL,12.5 µg/mL,"MIC [15, 38]: < 0.2 µg/mL; MIC [16, 39]: < 0.2 µg/mL; MIC [17, 40]: 1.56 µg/mL; MIC [20, 41]: < 0.2 µg/mL; MIC [22, 42]: 0.78 µg/mL; MIC [23, 43]: < 0.2 µg/mL; MIC [24, 44]: 6.25 µg/mL; MIC [25, 45]: < 0.2 µg/mL; MIC [29, 46]: 0.39 µg/mL"
"CCCCCSC=C(c1ccccc1OCC)n1ccnc1 (single isomer, unassigned) [Compound 49]",3.12 µg/mL,25 µg/mL,0.78 µg/mL,< 0.2 µg/mL,1.56 µg/mL,12.5 µg/mL,1.56 µg/mL,< 0.2 µg/mL,6.25 µg/mL,25 µg/mL,< 0.2 µg/mL,25 µg/mL,6.25 µg/mL,< 0.2 µg/mL,12.5 µg/mL,3.12 µg/mL,6.25 µg/mL,50 µg/mL,1.56 µg/mL,12.5 µg/mL,"MIC [15, 38]: < 0.2 µg/mL; MIC [16, 39]: < 0.2 µg/mL; MIC [17, 40]: 0.39 µg/mL; MIC [20, 41]: < 0.2 µg/mL; MIC [22, 42]: 0.78 µg/mL; MIC [23, 43]: < 0.2 µg/mL; MIC [24, 44]: 3.12 µg/mL; MIC [25, 45]: < 0.2 µg/mL; MIC [29, 46]: 0.39 µg/mL"
"CCCOc1ccccc1C(=CSc1ccccc1)n1ccnc1 (single isomer, unassigned) [Compound 64]",–,> 100 µg/mL,–,–,–,12.5 µg/mL,–,–,–,> 100 µg/mL,6.25 µg/mL,> 100 µg/mL,6.25 µg/mL,–,25 µg/mL,6.25 µg/mL,25 µg/mL,50 µg/mL,50 µg/mL,> 100 µg/mL,"MIC ([1]; Sarcina lutea ATCC 9341): 6.25 µg/mL; MIC ([3]; Epidermophyton floccosum IFO 9045): 6.25 µg/mL; MIC ([4]; Trichophyton mentagrophytes IFO 5812): < 0.2 µg/mL; MIC ([5]; IFO3333): 1.56 µg/mL; MIC ([7]; Microsporum cookei IFO 8303): 12.5 µg/mL; MIC ([8]; Saccharomyces, 6507, Saccharomyces ruxii 6507): 1.56 µg/mL; MIC ([9]; Penicillium chrysogenum ATCC 6010): 12.5 µg/mL; MIC ([14]; Aspergillus niger ATCC 9642): 12.5 µg/mL; MIC ([15]; Pyricularia oryzae IAM 5016): < 0.2 µg/mL; MIC ([16]; Trichophyton tonsurans IFO 5928): 3.12 µg/mL; MIC ([17]; Helminthosporium sesamum IAM 5012): 6.25 µg/mL; MIC [20]: < 0.2 µg/mL; MIC ([22]; Aspergillus oryzae IMF 4014): 6.25 µg/mL; MIC ([23]; Trichophyton mentagrophytes QM 248): 0.78 µg/mL; MIC ([24]; Bacillus subtilis ATCC 6633): 6.25 µg/mL; MIC ([25]; Microsporum audounii IFO 6074): < 0.2 µg/mL; MIC ([29]; Gibberella fujikuroi IAM 8046): 25 µg/mL"
